Reference: patent US7595401B2, “Therapeutic compounds and their use in cancer” (Myriad Pharmaceuticals, Inc., priority 2006, dated 2009)

Biological target: purified human Hsp90
Test: Binding Assay: fluorescence polarization with BODIPY-labeled geldanamycin
Conditions: BODIPY-GM 10 nM, Hsp90 30 nM
Outline: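 Compounds in 2% DMSO final compete with 10 nM BODIPY-GM for 30 nM purified human Hsp90, incubated overnight at room temperature in pH 7.3 HEPES buffer containing Na2MoO4 and DTT. Polarization (mP, ex/em 485/530) normalized to DMSO gives percent inhibition; autofluorescence-confounded data excluded.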

Row | Compound | IC50 | % Inhibition at 5 μM Compound Concentration
1 | CC(C)(C)OC(=O)NC(CCn1c(Sc2cc3c(cc2Br)OCO3)nc2c(N)ncnc21)C1CCOCC1 (stereo not drawn) [Example 682, [3-[6-Amino-8-(6-bromo-benzo[1,3]dioxol-5-ylsulfanyl)-purin-9-yl]-1-(tetrahydro-pyran-4-yl)-propyl]-carbamic acid tert-butyl ester] | 0.19 µM | 
2 | Nc1ncn(CCc2cccc(I)c2)c2nc(Sc3cc4c(cc3Br)OCO4)nc1-2 [Example 154, 8-(6-Bromo-benzo[1,3]dioxol-5-ylsulfanyl)-3-[2-(3-iodo-phenyl)-ethyl]-3H-purin-6-ylamine] |  | >10%
3 | CC(C)(C)NS(=O)(=O)c1ccc(CCn2cnc(N)c3nc(Sc4cc5c(cc4Br)OCO5)nc2-3)cc1 [Example 274, 4-(2-{6-Amino-8-[(6-bromo-1,3-benzodioxol-5-yl)thio]-3H-purin-3-yl}ethyl) N-(tert-butyl)benzenesulfonamide] |  | 0.0%
4 | CCC(C)C(Cn1c(Sc2cc3c(cc2Br)OCO3)nc2c(N)ncnc21)c1ccccc1 (stereo not drawn) [Example 99, 8-(6-Bromo-benzo[1,3]dioxol-5-ylsulfanyl)-9-(3-methyl-2-phenyl-pentyl)-9H-purin-6-ylamine] | 0.3 µM | 
5 | Nc1ncnc2c1nc(Sc1cc3c(cc1Br)OCO3)n2CCC1CCN(C(=O)C2(C(F)(F)F)CC2)CC1 [Example 526, 8-[(6-Bromo-1,3-benzodioxol-5-yl)thio]-9-[2-(1-{[1-(trifluoromethyl)cyclopropyl]carbonyl}piperidin-4-yl)ethyl]-9 H-purin-6-amine] | 0.3 µM | 
6 | Nc1ncn(CCC2CCCCN2S(=O)(=O)C(F)(F)F)c2nc(Sc3cc4c(cc3Br)OCO4)nc1-2 (stereo not drawn) [Example 397, 8-[(6-Bromo-1,3-benzodioxol-5-yl)thio]-3-(2-{1-[(trifluoromethyl)sulfonyl]piperidin 2-yl}ethyl)-3H-purin-6-amine] |  | 1%
7 | COc1ccc(OC)c(Sc2nc3c(N)ncn(CC(c4ccc(Cl)cc4)C(C)C)c-3n2)c1 (stereo not drawn) [Example 120, 3-[2-(4-chloro-phenyl)-3-methyl-butyl]-8-(2,5-dimethoxy-phenylsulfanyl)-3H-purine-6-ylamine] |  | 0%
8 | Nc1ncn(CCc2ccccc2Cl)c2nc(Sc3cc4c(cc3Br)OCO4)nc1-2 [Example 54, 8-(6-bromo-benzo[1,3]dioxol-5-ylsulfanyl)-3-[2-(2-chloro-phenyl)-ethyl]-3H-purin-6-ylamine] |  | 13%
9 | CC(C)C[C@H](NC(=O)OC(C)(C)C)C(=O)N1CCCC(CCn2c(Sc3cc4c(cc3Br)OCO4)nc3c(N)ncnc32)C1 (stereo partly drawn) [Example 719, tert-Butyl((1S)-1-{[3-(2-{6-amino-8-[(6-bromo-1,3-benzodioxol-5-yl)thio]-9H-purin-9-yl}ethyl)piperidin-1-yl]carbonyl}-3-methylbutyl)carbamate] | 0.8 µM | 
10 | Nc1ncnc2c1nc(Sc1cc(OC(F)(F)F)ccc1Cl)n2CCc1ccccc1 [Example 228, 8-{[2-Chloro-5-(trifluoromethoxy)phenyl]thio}-9-(2-phenylethyl)-9H-purin-6-amine] | > 8 µM | 
11 | COc1cc(Sc2nc3c(N)ncnc3n2CCC2CCN(C=O)CC2)ncn1 [Example 544, 4-(2-{6-Amino-8-[(6-methoxypyrimidin-4-yl)thio]-9 H-purin-9-yl}ethyl)piperidine-1-carbaldehyde] | 1.4 µM | 
12 | COc1ccc(OC)c(Sc2nc3c(N)ncnc3n2CCc2ccsc2)c1 [Example 197, 8-(2,5-Dimethoxy-phenylsulfanyl)-9-(2-thiophen-3-yl-ethyl)-9H-purin-6-ylamine] | 0.17 µM | 
13 | Nc1ncnc2c1nc(Sc1ccc3c(c1)OCO3)n2CCCc1ccccc1 [Example 6, 8-(Benzo[1,3]dioxol-5-ylsulfanyl)-9-(3-phenyl-propyl)-9H-purin-6-ylamine] | 1.06 µM | 66%
14 | COc1ccc(OC)c(Sc2nc3c(N)ncnc3n2CCC2CC(C)(C)NC(C)(C)C2)c1 [Example 361, 8-[(2,5-Dimethoxyphenyl)thio]-9-[2-(2,2,6,6-tetramethylpiperidin-4-yl)ethyl]-9H-purin-6-amine] | 2.9 µM | 
15 | Nc1ncnc2c1nc(Sc1cc3c(cc1Br)OCO3)n2CC(c1ccccc1)C1CCCCC1 (stereo not drawn) [Example 226, 8-[(6-Bromo-1,3-benzodioxol-5-yl)thio]-9-(2-cyclohexyl-2-phenylethyl)-9H-purin-6-amine] | > 25 µM | 
16 | Nc1ncnc2c1nc(Sc1cc(Cl)c(Cl)cc1Cl)n2CCc1ccccc1Cl [Example 262, 9-[2-(2-Chlorophenyl)ethyl]-8-[(2,4,5-trichlorophenyl)thio]-9H-purin-6-amine] | > 25 µM | 
17 | COc1cc(CCn2cnc(N)c3nc(Sc4cc5c(cc4Br)OCO5)nc2-3)cc(OC)c1OC [Example 92, 8-(6-bromo-benzo[1,3]dioxol-5-ylsulfanyl)-3-[2-(3,4,5-trimethoxy-phenyl)-ethyl]-3H-purin-6-ylamine] |  | 0%

Row | Compound | IC50 | % Inhibition at 5 μM Compound Concentration
18 | COc1ccc(OC)c(Sc2nc3c(N)ncn(CCc4cccc(F)c4)c-3n2)c1 [Example 38, 8-(2,5-dimethoxy-phenylsulfanyl)-3-[2-(3-fluoro-phenyl)-ethyl]-3H-purin-6-ylamine] | > 10 µM | 
19 | CC(C)C[C@H](N)C(=O)N1CCC(CCn2c(Sc3cc4c(cc3Br)OCO4)nc3c(N)ncnc32)CC1 [Example 744, 9-(2-{1-[(2S)-2-Amino-4-methylpentanoyl]piperidin-4-yl}ethyl)-8-[(6-bromo-1,3-benzodioxol-5-yl)thio]-9H-purin-6-amine] | 0.068 µM | 
20 | Nc1ncnc2c1nc(Sc1cc3c(cc1Br)OCO3)n2CCC1CNC1 [Example 483, 9-(2-Azetidin-3-ylethyl)-8-[(6-bromo-1,3-benzodioxol-5-yl)thio]-9 H-purin-6-amine] | 0.184 µM | 
21 | C[C@H](O)C(=O)N1CCC(CCn2c(Sc3cc4c(cc3Br)OCO4)nc3c(N)ncnc32)CC1 [Example 757, (2S)-1-[4-(2-{6-amino-8-[(6-bromo-1,3-benzodioxol-5-yl)thio]-9H-purin-9-yl}ethyl)piperidin-1-yl]-1-oxopropan-2-ol] | 0.205 µM | 
22 | Cc1ccsc1Sc1nc2c(N)ncnc2n1CCC1CCN(C=O)CC1 [Example 546, 4-(2-{6-Amino-8-[(3-methyl-2-thienyl)thio]-9 H-purin-9-yl}ethyl)piperidine-1-carbaldehyde] | > 5 µM | 
23 | CC(C)(C)OC(=O)N1CCCC(Cn2cnc(N)c3nc(Sc4cc5c(cc4Br)OCO5)nc2-3)C1 (stereo not drawn) [Example 642, tert-Butyl 3-({6-amino-8-[(6-bromo-1,3-benzodioxol-5-yl)thio]-3 H-purin-3-yl}methyl)piperidine-1-carboxylate] |  | 15.00%
24 | Nc1ncn(CCn2cnc3ccccc3c2=O)c2nc(Sc3cc4c(cc3Br)OCO4)nc1-2 [Example 270, 3-(2-{6-Amino-8-[(6-bromo-1,3-benzodioxol-5-yl)thio]-3H-purin-3-yl}ethyl)quinazolin-4(3 H)-one] |  | 7.0%
25 | COc1ccc(OC)c(Sc2nc3c(N)ncn(CCn4cccc4)c-3n2)c1 [Example 66, 8-(2,5-dimethoxy-phenylsulfanyl)-3-(2-pyrrol-1-yl-ethyl)-3H-purin-6-ylamine] |  | 5%
26 | Nc1ncnc2c1nc(Sc1cc3c(cc1Br)OCO3)n2CCC1CCN(C(=O)[C@@H]2CCCCN2)CC1 [Example 754, 8-[(6-Bromo-1,3-benzodioxol-5-yl)thio]-9-(2-{1-[(2S)-piperidin-2-ylcarbonyl]piperidin-4-yl}ethyl)-9H-purin-6-amine] | 0.05 µM | 
27 | COc1ccc(OC)c(Sc2nc3c(N)ncn(CC(c4ccccc4)C4CCCC4)c-3n2)c1 (stereo not drawn) [Example 104, 3-(2-cyclopentyl-2-phenyl-ethyl)-8-(2,5-dimethoxy-phenylsulfanyl)-3H-purin-6-ylamine] |  | 38%
28 | CC(C)(C)NC(=O)N1CCCC(CCn2c(Sc3cc4c(cc3Br)OCO4)nc3c(N)ncnc32)C1 (stereo not drawn) [Example 437, 3-(2-{6-Amino-8-[(6-bromo-1,3-benzodioxol-5-yl)thio]-9H-purin-9-yl}ethyl)-N-(tert-butyl)piperidine-1-carboxamide] | 0.39 µM | 
29 | CC(C)[C@@H]1C[C@H](CCn2c(Sc3cc4c(cc3Br)OCO4)nc3c(N)ncnc32)CCN1 (relative stereo) [Example 480, 8-[(6-bromo-1,3-benzodioxol-5-yl)thio]-9-{2-[cis-2-isopropylpiperidin-4-yl]ethyl}-9 H-purin-6-amine] | 0.16 µM | 
30 | Nc1ncnc2c1nc(Sc1cc3c(cc1Br)OCO3)n2CCC1CCN(Cc2ccc(Cl)cc2)CC1 [Example 573, 8-[(6-Bromo-1,3-benzodioxol-5-yl)thio]-9-{2-[1-(4-chlorobenzyl)piperidin-4-yl]ethyl}-9 H-purin-6-amine] | 1.4 µM | 
31 | CC(C)(C)OC(=O)NC(CCn1c(Sc2cc3c(cc2Br)OCO3)nc2c(N)ncnc21)C1CCSCC1 (stereo not drawn) [Example 666, tert-Butyl[3-{6-amino-8-[(6-bromo-1,3-benzodioxol-5-yl)thio]-9H-purin-9-yl}-1-(tetrahydro-2H-thiopyran-4-yl)propyl]carbamate] | 0.8 µM | 
32 | CCOc1ccc(OCC)c(Sc2nc3c(N)ncn(CCc4ccccc4Cl)c-3n2)c1 [Example 192, 3-[2-(2-chloro-phenyl)-ethyl]-8-(2,5-diethoxy-phenylsulfanyl)-3H-purin-6-ylamine] |  | 0%
33 | CCOc1cc(CCn2c(Sc3cc4c(cc3Br)OCO4)nc3c(N)ncnc32)ccc1OC [Example 117, 8-(6-Bromo-benzo[1,3]dioxol-5-ylsulfanyl)-9-[2-(3-ethoxy-4-methoxy-phenyl)-ethyl]-9H-purin-6-ylamine] | 0.3 µM | 54%
34 | CC(C)(C)OC(=O)N1CCCC1CCn1cnc(N)c2nc(Sc3cc4c(cc3Br)OCO4)nc1-2 (stereo not drawn) [Example 412, tert-Butyl 2-(2-{6-amino-8-[(6-bromo-1,3-benzodioxol-5-yl)thio]-3H-purin-3-yl}ethyl)pyrrolidine-1-carboxylate] |  | 0%
